The format of data set [1] is in vitro ADME. Particulars: 24 h. As for the experimental part:
EXAMPLE. Intracellular activity of CEM-101. […] After 24 hours, the intracellular concentration of CEM-101 was more than 2-fold higher than any of azithromycin, clarithromycin, and telithromycin, in decreasing order of ability for intracellular accumulation. CEM-101 intracellular accumulation was dose dependent.

Data set [2] concerns P. berghei blood stages. Put plainly: Blood stage treatment of P. berghei-infected mice, 3 day PO or SC dosing. Format: in vivo. Particulars: blood stage infections.
The subject of data set [3] is P. berghei ANKA sporozoites. Put plainly: Causal prophylactic P. berghei sporozoite mouse model. Format: in vivo. As for the experimental part:
EXAMPLE. CEM-101 activity as prophylactic. Mice inoculated IV with 0.1 ml, 100,000 P. berghei ANKA sporozoites from mosquitoes. Drug administered Day −1, 0 and 1, Once daily for 3 days.

Consider `CC[C@H]1OC(=O)[C@@](C)(F)C(=O)[C@H](C)[C@@H](O[C@@H]2O[C@H](C)C[C@H](N(C)C)[C@H]2O)[C@](C)(OC)C[C@@H](C)C(=O)[C@H](C)[C@H]2N(CCCCn3cc(-c4cccc(N)c4)nn3)C(=O)O[C@]12C` [CEM-101, solithromycin], for which the “intracellular concentration relative to azithromycin, clarithromycin and telithromycin” value in data set [1] is reported as “more than 2 fold”. In addition, the “minimum active dose for PO route” value in data set [2] (PO) stood at 80 mg/kg/d×3. In data set [2] (SC), the “minimum curative SC dose” value stood at 40 mg/kg/d×3 days. Further, the “mice remaining parasite free” value in data set [3] (20 mg/kg/d×3 days) is given as 3/5. For the same molecule, the “outcome in the P. berghei causal mouse model” value in data set [3] (40 mg/kg/d×3 days with SC or PO dosing) is “curative”. In data set [3] (causal mouse malaria models, PO dosing at 40 mg/kg/d×3 days), this molecule gave a prophylactic activity of 100%. Further, the “blood stage infection after prophylactic dosing” value in data set [3] (mice dosed as low as 40 mg/kg/d×3 days) is reported as “no blood stage infection was detected”. The Activity result in data set [3] (mice, PO, dose 80, once daily Day -1, 0 and 1, (3 mice)) is given as “Complete curative”; in data set [3] (mice, PO, dose 120, once daily Day -1, 0 and 1, (3 mice)) it was “Complete curative”; in data set [3] (mice, PO, dose 160, once daily Day -1, 0 and 1) it was “Complete curative”; in data set [3] (mice, SC, dose 40, once daily Day -1, 0 and 1) it was “Complete curative”; in data set [3] (mice, SC, dose 80, once daily Day -1, 0 and 1), “Complete curative”; in data set [3] (mice, SC, dose 120, once daily Day -1, 0 and 1) it was “Complete curative”. Further, in data set [3] (mice, SC, dose 160, once daily Day -1, 0 and 1), the Activity entry is listed as “Complete curative”. The molecule also showed a minimum active dose in data set [3] (mice, causal prophylactic model) of 20 mg/kg/d×3 days.

These data come from patent US9480679B2, “Methods for treating malaria, tuberculosis and MAC diseases” (priority 2009, dated 2016).
